Measurements: ChEMBL document CHEMBL3632488, “Discovery of potent and selective cytotoxic activity of new quinazoline-ureas against TMZ-resistant glioblastoma multiforme (GBM)” (Eur J Med Chem, 2015)
The source made the active and inactive calls. The rule behind the calls is not given here.

What was measured:
[1] = biological target: Translocator protein (Rattus norvegicus) (UniProt P16257); settings: Sprague-Dawley, Cerebral cortex, Membrane, 0.1 nM
[2] = biological target: Translocator protein (Rattus norvegicus) (UniProt P16257); assay: Displacement of [3H]PK11195 from TSPO receptor in Sprague-Dawley rat cerebral cortex membrane at 10 nM by radiometric competitive assay; type: tissue-based
[3] = biological target: Translocator protein (Rattus norvegicus) (UniProt P16257); assay: Displacement of [3H]PK11195 from TSPO receptor in Sprague-Dawley rat cerebral cortex membrane at 1 nM by radiometric competitive assay; type: tissue-based
[4] = biological target: Translocator protein (Rattus norvegicus) (UniProt P16257); assay: Displacement of [3H]PK11195 from TSPO receptor in Sprague-Dawley rat cerebral cortex membrane at 1 uM by radiometric competitive assay; type: tissue-based
[5] = biological target: Translocator protein (Rattus norvegicus) (UniProt P16257); assay: Displacement of [3H]PK11195 from TSPO receptor in Sprague-Dawley rat cerebral cortex membrane at 100 nM by radiometric competitive assay; type: tissue-based
[6] = test system: GBM; assay: Tumoricidal effect in patient derived GBM 047T cells assessed as reduction in neurosphere formation at 20 uM after 1 to 2 weeks by 3D tumor clonogenic assay; type: functional, cell-based; settings: Homo sapiens
[7] = test system: GBM; assay: Tumoricidal effect in patient derived GBM 448T cells assessed as reduction in neurosphere formation at 20 uM after 1 to 2 weeks by 3D tumor clonogenic assay; type: functional, cell-based; settings: Homo sapiens
[8] = test system: GBM; assay: Tumoricidal effect in patient derived GBM 464T cells assessed as reduction in neurosphere formation at 20 uM after 1 to 2 weeks by 3D tumor clonogenic assay; type: functional, cell-based; settings: Homo sapiens
[9] = test system: GBM; assay: Tumoricidal effect in patient derived GBM 096T cells assessed as reduction in neurosphere formation at 20 uM after 1 to 2 weeks by 3D tumor clonogenic assay; type: functional, cell-based; settings: Homo sapiens
[10] = test system: GBM; assay: Tumoricidal effect in patient derived GBM 025T cells assessed as reduction in neurosphere formation at 20 uM after 1 to 2 weeks by 3D tumor clonogenic assay; type: functional, cell-based; settings: Homo sapiens
[11] = Antiproliferative activity against human GBM3 cells assessed as reduction in cell viability at 10 uM incubated for 72 hrs by WST-1 method; type: functional; settings: GBM3, 72 h
[12] = Antiproliferative activity against human GBM2 cells assessed as reduction in cell viability at 10 uM incubated for 72 hrs by WST-1 method; type: functional; settings: GBM2, 72 h
[13] = Antiproliferative activity against human GBM1 cells assessed as reduction in cell viability incubated for 72 hrs by WST-1 method; type: functional, cell-based; settings: GBM1, 72 h
[14] = Cytotoxicity against normal human astrocytes assessed as cell viability incubated for 72 hrs by WST-1 method; type: cell-based; settings: Astrocyte
[15] = biological target: Translocator protein (Rattus norvegicus, UniProt P16257); assay: Displacement of [3H]PK11195 from TSPO receptor in Sprague-Dawley rat cerebral cortex membrane by radiometric competitive assay; type: tissue-based
[16] = biological target: Translocator protein (Rattus norvegicus) (UniProt P16257); assay: Displacement of [3H]PK11195 from TSPO receptor in Sprague-Dawley rat cerebral cortex membrane at 10 uM by radiometric competitive assay; type: tissue-based
[17] = Antiproliferative activity against human GBM2 cells assessed as reduction in cell viability incubated for 72 hrs by WST-1 method; type: functional, cell-based; settings: GBM2, 72 h
[18] = Selectivity index, ratio of IC50 for normal human astrocytes to IC50 for human GBM2 cells
[19] = Antiproliferative activity against human GBM3 cells assessed as reduction in cell viability incubated for 72 hrs by WST-1 method; type: functional, cell-based; settings: GBM3, 72 h
[20] = test system: GBM1; assay: Induction of apoptosis in human GBM1 cells assessed as loss of mitochondrial membrane potential at 10 uM after 2 hrs by JC-1 staining based fluorescence microscopy; type: functional, cell-based
[21] = Selectivity index, ratio of IC50 for normal human astrocytes to IC50 for human GBM1 cells
[22] = Antiproliferative activity against human GBM1 cells assessed as reduction in cell viability at 10 uM incubated for 72 hrs by WST-1 method; type: functional; settings: GBM1, 72 h
[23] = Selectivity index, ratio of IC50 for normal human astrocytes to IC50 for human GBM3 cells
[24] = biological target: Cytochrome P450 2D6 (Homo sapiens, UniProt P10635); assay: Inhibition of CYP2D6 (unknown origin) using luciferin tagged substrate preincubated for 10 mins before substrate addition; type: ADME
[25] = test system: GBM; assay: Tumoricidal effect in patient derived GBM 025T cells assessed as reduction in neurosphere formation at 0.5 uM after 1 to 2 weeks by 3D tumor clonogenic assay; type: functional, cell-based; settings: Homo sapiens
[26] = biological target: Cytochrome P450 3A4 (Homo sapiens, UniProt P08684); assay: Inhibition of CYP3A4 (unknown origin) using luciferin tagged substrate preincubated for 10 mins before substrate addition; type: ADME
[27] = biological target: T1, Cytochrome P450 1A2 (Homo sapiens, UniProt P05177); assay: Inhibition of CYP1A2 (unknown origin) using luciferin tagged substrate preincubated for 10 mins before substrate addition; type: ADME
T1 sequence (P05177 whole entry): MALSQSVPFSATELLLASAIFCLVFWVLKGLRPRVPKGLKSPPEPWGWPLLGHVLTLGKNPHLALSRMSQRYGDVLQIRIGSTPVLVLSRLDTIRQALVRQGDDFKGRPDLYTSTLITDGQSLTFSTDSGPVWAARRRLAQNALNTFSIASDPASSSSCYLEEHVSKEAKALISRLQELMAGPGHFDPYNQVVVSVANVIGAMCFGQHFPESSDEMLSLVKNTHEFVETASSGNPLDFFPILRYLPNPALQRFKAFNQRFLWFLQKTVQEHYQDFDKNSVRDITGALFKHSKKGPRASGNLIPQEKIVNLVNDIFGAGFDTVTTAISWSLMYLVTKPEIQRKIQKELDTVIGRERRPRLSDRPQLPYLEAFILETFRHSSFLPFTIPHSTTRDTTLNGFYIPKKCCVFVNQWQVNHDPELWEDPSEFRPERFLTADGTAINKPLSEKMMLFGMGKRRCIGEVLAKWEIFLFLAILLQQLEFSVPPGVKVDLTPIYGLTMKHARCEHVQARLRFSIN

[28] = test system: GBM; assay: Tumoricidal effect in patient derived GBM 096T cells assessed as reduction in neurosphere formation at 0.1 uM after 1 to 2 weeks by 3D tumor clonogenic assay; type: functional, cell-based; settings: Homo sapiens
[29] = test system: GBM; assay: Tumoricidal effect in patient derived GBM 025T cells assessed as reduction in neurosphere formation at 0.1 uM after 1 to 2 weeks by 3D tumor clonogenic assay; type: functional, cell-based; settings: Homo sapiens
[30] = test system: GBM; assay: Tumoricidal effect in patient derived GBM 448T cells assessed as reduction in neurosphere formation at 0.5 uM after 1 to 2 weeks by 3D tumor clonogenic assay; type: functional, cell-based; settings: Homo sapiens
[31] = test system: GBM2; assay: Induction of apoptosis in human GBM2 cells assessed as loss of mitochondrial membrane potential in presence of PK11195 at 10 uM after 2 hrs by JC-1 staining based fluorescence microscopy; type: functional, cell-based
[32] = test system: GBM; assay: Tumoricidal effect in patient derived GBM 096T cells assessed as reduction in neurosphere formation at 0.5 uM after 1 to 2 weeks by 3D tumor clonogenic assay; type: functional, cell-based; settings: Homo sapiens
[33] = biological target: Cytochrome P450 2C9 (Homo sapiens, UniProt P11712); assay: Inhibition of CYP2C9 (unknown origin) using luciferin tagged substrate preincubated for 10 mins before substrate addition; type: ADME
[34] = biological target: Voltage-gated inwardly rectifying potassium channel KCNH2 (Homo sapiens, UniProt Q12809); assay: Displacement of [3H]astemizole from human ERG potassium channel expressed in HEK293 cell membrane after 1 hr; type: cell membranes
[35] = test system: GBM2; assay: Induction of apoptosis in human GBM2 cells assessed as loss of mitochondrial membrane potential in presence of cyclosporine A at 10 uM after 2 hrs by JC-1 staining based fluorescence microscopy; type: functional, cell-based
[36] = test system: GBM; assay: Tumoricidal effect in patient derived GBM 464T cells assessed as reduction in neurosphere formation at 0.5 uM after 1 to 2 weeks by 3D tumor clonogenic assay; type: functional, cell-based; settings: Homo sapiens
[37] = test system: GBM; assay: Tumoricidal effect in patient derived GBM 047T cells assessed as reduction in neurosphere formation at 0.1 uM after 1 to 2 weeks by 3D tumor clonogenic assay; type: functional, cell-based; settings: Homo sapiens
[38] = test system: GBM; assay: Tumoricidal effect in patient derived GBM 047T cells assessed as reduction in neurosphere formation at 0.5 uM after 1 to 2 weeks by 3D tumor clonogenic assay; type: functional, cell-based; settings: Homo sapiens
[39] = test system: GBM; assay: Tumoricidal effect in patient derived GBM 464T cells assessed as reduction in neurosphere formation at 0.1 uM after 1 to 2 weeks by 3D tumor clonogenic assay; type: functional, cell-based; settings: Homo sapiens
[40] = test system: GBM2; assay: Induction of apoptosis in human GBM2 cells assessed as loss of mitochondrial membrane potential in presence of BAPTA at 10 uM after 2 hrs by JC-1 staining based fluorescence microscopy; type: functional, cell-based
[41] = test system: GBM2; assay: Induction of apoptosis in human GBM2 cells assessed as loss of mitochondrial membrane potential at 10 uM after 2 hrs by JC-1 staining based fluorescence microscopy; type: functional, cell-based
[42] = biological target: Cytochrome P450 2C19 (Homo sapiens, UniProt P33261); assay: Inhibition of CYP2C19 (unknown origin) using luciferin tagged substrate preincubated for 10 mins before substrate addition; type: ADME
[43] = test system: GBM; assay: Tumoricidal effect in patient derived GBM 448T cells assessed as reduction in neurosphere formation at 0.1 uM after 1 to 2 weeks by 3D tumor clonogenic assay; type: functional, cell-based; settings: Homo sapiens

Q: For `CCC(C)N(C)C(=O)c1cc2ccccc2c(-c2ccccc2Cl)n1` (stereo not drawn), which inhibition [1] is on record?
A: 0%

Q: And the inhibition [2]?
A: 45%

Q: And the inhibition [3]?
A: 7%

Q: What about the inhibition [4] of the same compound?
A: 100%

Q: What about the inhibition [5] of the same compound?
A: 90%

Q: With `Cn1nnc2c(C(N)=O)ncn2c1=O` as the compound, how does the Activity [6] read?
A: Active

Q: What about the Activity [7] of the same compound?
A: inactive

Q: What about the Activity [8] of the same compound?
A: Active

Q: What about the Activity [9] of the same compound?
A: inactive

Q: What about the Activity [10] of the same compound?
A: inactive

Q: For `O=C(Nc1cccc(Cl)c1)Nc1cc2ncncc2cc1OCc1ccccc1Cl`, which inhibition [2] is on record?
A: 6%

Q: And the inhibition [3]?
A: 2%

Q: And the inhibition [4]?
A: 23%

Q: What about the inhibition at 10 µM [11] of the same compound?
A: 103%

Q: And the inhibition at 10 µM [12]?
A: 97.2%

Q: What about the IC50 [13] of the same compound?
A: 2600 nM

Q: And the IC50 [14]?
A: > 10000 nM

Q: And the IC50 [15]?
A: 2790 nM

Q: And the inhibition [16]?
A: 80%

Q: And the IC50 [17]?
A: 2100 nM

Q: What about the “Ratio IC50” value [18] of the same compound?
A: >4

Q: And the IC50 [19]?
A: 2800 nM

Q: What about the Activity [20] of the same compound?
A: Active

Q: What about the “Ratio IC50” value [21] of the same compound?
A: >4

Q: What about the inhibition at 10 µM [22] of the same compound?
A: 78.5%

Q: And the inhibition [5]?
A: 14%

Q: And the “Ratio IC50” value [23]?
A: >4

Q: Which results are given for `O=C(Nc1cc2ncncc2cc1OCc1cccc(Cl)c1)Nc1cccc2ccccc12`?
A: IC50 [24]: 5100 nM; inhibition [2]: 2%; Activity [25]: Active; IC50 [26]: > 10000 nM; IC50 [27]: > 10000 nM; inhibition [4]: 59%; Activity [28]: Active; Activity [29]: Active; Activity [30]: Active; Activity [31]: Active; inhibition at 10 µM [11]: 98.7%; Activity [32]: Active; inhibition at 10 µM [12]: 99.9%; IC50 [13]: 1100 nM; IC50 [33]: > 10000 nM; IC50 [34]: > 10000 nM; IC50 [14]: > 10000 nM; Activity [35]: Active; IC50 [15]: 722 nM; Activity [36]: Active; inhibition [16]: 85%; Activity [37]: inactive; IC50 [17]: 1100 nM; Activity [38]: Active; Ratio IC50 [18]: >10.1; Activity [39]: Active; Activity [40]: Active; IC50 [19]: 800 nM; Activity [41]: Active; Activity [20]: Active; IC50 [42]: > 10000 nM; Ratio IC50 [21]: >10.1; inhibition at 10 µM [22]: 100%; inhibition [5]: 15%; Activity [43]: inactive; Ratio IC50 [23]: >10.1
